Test results taken from patent US10653672B2, “Myogenesis promotor, muscle atrophy inhibitor, medical composition and TAZ activator” (National University Corporation Tokyo Medical and Dental …, priority 2014, dated 2020).
Where “and” joins values, the source holds several entries; their conditions need not be identical. Equal entries are not always repeated.

Key:
Balb/c ByJ mice = test: Suppression of dexamethasone-induced muscle atrophy; assay type: in vivo, mouse; settings: 20 μL of 25 mg/mL stock intraperitoneally each day for a week; day 14
Experimental: (1) A 25 mg/mL dexamethasone stock solution in DMSO was prepared. Three Balb/c ByJ mice (6 week, female) were intraperitoneally injected with 20 μL of the dexamethasone stock solution, each day for a week. As a control group, three other individuals were injected with 20 μL of DMSO. On day 9, 11 and 13, each group of the mice was injected with a solution prepared by dissolving 0.3 μL of 10 mM IBS008738 stock solution in 100 μL PBS, on one hindlimb muscle, and with 100 μL PBS on the other hindlimb muscle. The mice were sacrificed at day 14, and the muscle tissues were fixed and stained with hematoxylin and eosin (see FIG. 8D). It was observed that the muscle fibers of the mice administered with dexamethasone were shrinked.
(2) The cross section of the muscle fibers of the individual intraperitoneally injected with dexamethasone was stained with an anti-laminin antibody and observed. […] The cross-section area of muscle fibers (500 per individual) of the three mice was measured. As a result, the area of the individual injected with IBS008738 was greater than the area of the individual injected with DMSO (see FIG. 9F). The cross-section area of muscle fibers was analyzed with Image J software.

C2C12 cells [1] = test: Evaluation of myogenesis of C2C12 cells by fusion index; assay type: cell-based, mouse; settings: Group 5, differentiation condition 72 hours, DMSO as 1, average of three
Experimental: (1) C2C12 cells were grown to confluence under growth condition, and then in differentiation condition for 72 hours, in a culture medium added with DMSO, IBS008738 (exemplary compound 1) or exemplary compounds 2 to 44, at a concentration of 1 μM, 3 μM or 10 μM, respectively. Thereafter, the degree of myogenesis was evaluated by a fusion index (a value obtained by dividing the number of nuclei detected in multinucleated myosin heavy chain (MHC)-positive cells by the total number of the nuclei). Specifically, exemplary compounds were divided into five groups, and DMSO and IBS008738 were evaluated in each group as controls. The evaluation was conducted three times, and the average value and the standard deviation of the fusion index was relativized with the measured value of DMSO as 1.
C2C12 cells were passaged in a growth medium (DMEM containing 10% FBS) and differentiated in a differentiation medium (DMEM containing 2% horse serum (Invitrogen)).

C2C12 cells [2] = test: Antagonistic action on myostatin in C2C12 cells; assay type: cell-based, mouse; settings: differentiation condition 72 hours
From the text: Myostatin is a protein and a member of a transforming growth factor […] superfamily, and inhibits muscle growth and differentiation. Myostatin binds activin type IIB receptor and triggers SMAD2/3-dependent signaling. Since TAZ interacts with SMAD2/3, effects of IBS008738 on the signaling of myostatin was examined (FIGS. 8A to 8C). The line in the figures is 100 μm. The line and the error bar indicate the average value and the standard error, *p<0.05, […], ***p<0.001, ns refers to not significant.
(1) C2C12 cells in which TAZ was knocked down (si TAZ) and C2C12 cells in which TAZ was not knocked down (si Cont) were grown to confluence, respectively, A stock solution of 100 μg/mL myostatin in 4 mM […] with 0.1% (w/v) BSA and a stock solution of 10 mM IBS008738 in DMSO were prepared. The cells were cultured at differentiation condition for 72 hours in a 1 mL medium with 1 μL DMSO, a 1 mL medium with 1 μL myostatin stock solution, and a 1 mL medium with 1 μL IBS008738 stock solution. As a result, muscle formation of the C2C12 cells was inhibited in the case with only myostatin, but muscle formation of the C2C12 cells was recovered in the case with myostatin and IBS008738.
(2) The fusion index of C2C12 cells in which TAZ was knocked down (si TAZ) and C2C12 cells in which TAZ was not knocked down (si Cont), after being cultured under differentiation condition for 72 hours, was analyzed.
Expression of MHC of C2C12 cells in which TAZ was knocked down (si TAZ) and C2C12 cells in which TAZ was not knocked down (si Cont), after being cultured under differentiation condition for 72 hours, was analyzed by immunoblotting. As a result, expression of MHC decreased in the case with only myostatin, whereas it recovered in the case with myostatin and IBS008738 (see FIG. 8C).

C[C@@H]1C[C@H]2[C@@H]3CCC4=CC(=O)C=C[C@]4(C)[C@@]3(F)[C@@H](O)C[C@]2(C)[C@@]1(O)C(=O)CO [dexamethasone, reference compound]
muscle fibers of the mice administered with dexamethasone (Balb/c ByJ mice): shrinked

Cc1cc(C)c(-n2cnc(N)c2C(=O)c2ccccc2)c(C)c1 [exemplary compound 44]
relative fusion index (FI) (C2C12 cells [1]; 1 μM): 1.11
relative fusion index (FI) (C2C12 cells [1]; 3 μM): 1.08
relative fusion index (FI) (C2C12 cells [1]; 10 μM): 1.07

myostatin [MSTN]
muscle formation of the C2C12 cells (C2C12 cells [2]; TAZ not knocked down, 1 μL myostatin stock (100 μg/mL) and/or 1 μL 10 mM IBS008738 stock in 1 mL medium): inhibited
expression of MHC (C2C12 cells [2]; immunoblotting): decreased
Fusion index (C2C12 cells [2]; siCont C2C12 cells): 0.06 and 0.05
Fusion index (C2C12 cells [2]; siTAZ C2C12 cells): 0.02 and 0.03 and 0.04
